The values below come from patent US10426842B2, “Targeted nanoparticle conjugate and method for co-delivery of siRNA and drug” (The Curators of the University of Missouri, priority 2015, dated 2019).

Data set [1] relates to DUSP6 gene expression in H23 cells. The data set can be described thus: Quantitative real-time RT-PCR of DUSP6. It is filed as cell-based, human. The settings on record: relative to untreated, 18sRNA reference. For orientation: In qPCR the cycle at which signal appears reflects the starting amount.
Experimental: In this inquiry, quantitative real time PCR was performed to examine dual specificity phosphatase 6 (DUSP6) and CD73 gene expression levels.
(§1) The effect of the oncogene knockdown on gene expression of DUSP6 and NT5E genes were observed by quantitative real-time RT-PCR. Initially H23 cells (1×10^6 cells/well) were treated with 4 samples including untreated, GelNP-Ab, GelNP-Ab-siRNA and siRNA (transfection agent). RNA was extracted through standard RNA extraction protocol. cDNA was synthesized from RNA extracted from the treated cells. The quality and the concentration of the extracted RNA was determined using bioanalyzer. 18sRNA was used as an reference gene (housekeeping gene) for data normalization. Primers and probes for all genes were purchased from Integrated DNA Technologies (IDT). PCR was performed in a reaction volume of 20 μl containing 2 μl cDNA using the Gene Amp 7700 Sequence Detection System. The comparative Ct protocol was followed to determine the relative expression levels.
Data set [2] concerns NT5E (CD73) gene expression in H23 cells. Description: Quantitative real-time RT-PCR of NT5E (CD73). The settings on record: relative to untreated, 18sRNA reference. It counts as cell-based, human.
Experimental: as §1
In data set [3] the test system is H23 human adenocarcinoma non-small cell lung cancer cells. The protocol: Considering downregulation of downstream-phosphorylated proteins, the cell viability of H23 cells (MTT assay) after knocking down the RAS pathway was then investigated.
(Thermo Scientific, USA). For determining in vitro cytotoxicity, the MTT assay was performed by incubating various samples including the nanoparticle of interest on H23 and A549 cells.
Each sample was analyzed in triplicate. After 24 hours of incubation, 10 μl of MTT solution (ATCC, USA) was added and the plate was incubated at 37° C. for 4 hours. Crystals formed were dissolved in 100 μl solubilizing buffer and the plates were kept at 25° C. for 2 hours. The intensity of the color developed after addition of the solubilizing buffer was measured using Biotek Cytation 3 spectrophotometer at 570 nm.
Viability of the cells transfected with various samples was then calculated by considering the untreated cells as 100% viable.

The subject of data set [4] is SHP2, pSHP2 (Y542), pSHP2 (Y580) in KRAS mutated H23 cells. Description: Western blot and densitometry for SHP2 and phospho-SHP2.
Experimental: The Western blot analysis was performed as follows. Cells were seeded at a density of 1×10^6 cells/ml and incubated for overnight at 37° C. in 5% CO2 atmosphere. Nanoparticle and relevant control samples were incubated in serum free media for the period of 72 hrs. […] Whole-cell lysates were prepared using Triton X 100 lysis buffer with MS-SAFE protease and phosphatase cocktail inhibitor (Sigma-Aldrich) and the protein concentration was equalized by Bicinchoninic acid assay (Sigma-Aldrich).
Membranes were incubated with primary antibody overnight, were washed and incubated with secondary antibody. Primary antibodies used for western blotting are rabbit polyclonal anti-β-actin, rabbit monoclonal anti-AKT, rabbit monoclonal anti-phospho-AKT, rabbit polyclonal anti-MEK1/2, rabbit polyclonal anti-phospho-MEK1/2, rabbit monoclonal anti-EGFR, rabbit monoclonal anti-phospho-EGFR, rabbit monoclonal anti-SHP2, rabbit polyclonal anti-phospho-SHP2 (Tyr542), rabbit polyclonal anti-phospho-SHP2 (Tyr580), rabbit monoclonal anti-phospho-GAB1 (Tyr627), rabbit polyclonal anti-phospho-GAB1 (Tyr307), all from Cell Signaling and mouse monoclonal anti-KRAS from Santa Cruz Biotech. […] Protein expression levels were quantified by densitometry analysis.

In the case of “transfected siRNA: KRAS G12C siRNA (SEQ ID NO. 1 annealed with SEQ ID NO. 2) delivered with transfecting agent (sense GUUGGAGCUUGUGGCGUAGUUUU; antisense AACUACGCCACAAGCUCCAACUU; disulfide moiety, further chemistry not given here)”, in data set [1], the “RF value of DUSP6 (real time qPCR)” value amounted to 0.1. The “CD73 (NT5E) RF value (real time qPCR)” value in data set [2] was determined as 1.07. Besides, the “cytotoxicity / change in viability (in words)” value in data set [3] is “no toxicity”. In data set [3] (H23 cells, without gefitinib), the “cell survival post RAS oncogene knockdown” value amounted to 100%. Also, the figures for the “SHP2, pSHP2 (Y542) and pSHP2 (Y580) level” value in data set [4] (in the presence of gefitinib) and in data set [4] (without gefitinib) were “significant downregulation” and “did not show any effect”, respectively.
